Results reported in US20250197461A1, “Insect-derived short peptide for improving abscisic acid (ABA) content in cruciferous plant” (Gannan Normal University, priority 2023, published 2025).

Tested on: Arabidopsis thaliana
Assay: Phytohormone detection in Arabidopsis thaliana leaves treated with short peptide (LC-MS/MS)
Assay type: in vivo
Conditions: 0.01 mg/mL; for ABA content / JA content: compared with GFP control group
Description: A synthetic short peptide of GSS1-PI with the corresponding concentration and mass was weighed and dissolved in 0.1% DMSO to obtain a 0.01 mg/mL treatment solution. A wild-type Arabidopsis thaliana plant of about four weeks old was taken, two cotyledons were collected and mechanically damaged to obtain three small holes, 2 μL of the GSS1-PI treatment solution was added dropwise into each small hole, while the control group was a solution of the same concentration prepared by synthesizing an unrelated short peptide GFP group (GFP-28aa: […], SEQ ID NO: 20) of the same length. After 24 h and 48 h of treatment, approximately 0.2 g of Arabidopsis thaliana leaves were collected, and each treatment had three biological replicates. The leaves were quickly placed in liquid nitrogen and stored in a −80° C. ultra-low temperature refrigerator for subsequent phytohormone group detection.
• a. The cryopreserved biological samples were ground with a grinder (30 Hz, 1 min) until they were in a powder form. • b. 50 mg of the ground sample was weighed and added with 10 μL of an internal standard mixed solution with a concentration of 100 ng/ml and 1 mL of an extractant including methanol/water/formic acid (15:4:1, v/v/v), and mixed well. • c. After vortexing for 10 min, a resulting mixture was centrifuged at 4° C. and 12,000 r/min for 5 min, and a resulting supernatant was transferred to a new centrifuge tube for concentration. • d. After concentration, the concentrated solution was reconstituted with 100 μL of 80% methanol/water solution, the reconstituted solution was filtered through a 0.22 μm filter, and the filtrate was placed in a sampling bottle for LC-MS/MS analysis.
The data acquisition instrument system mainly included ultra-performance liquid chromatography (UPLC) (ExionLC™ AD, //sciex.com.cn/) and tandem mass spectrometry (MS/MS) (QTRAP® 6500+, //sciex.com.cn/).
Liquid phase conditions mainly included: • 1) Chromatographic column: Waters ACQUITY UPLC HSS T3 C18 column (1.8 μm, 100 mm×2.1 mm i.d.); • 2) Mobile phase: phase A, ultrapure water (added with 0.04% acetic acid); phase B, acetonitrile (added with 0.04% acetic acid); • 3) Gradient elution program: 0 min A/B at 95:5 (V/V), 1.0 min A/B at 95:5 (V/V), 8.0 min at 5:95 (V/V), 9.0 min at 5:95 (V/V), 9.1 min at 95:5 (V/V), 12.0 min at 95:5 (V/V); • 4) Flow rate: 0.35 mL/min; column temperature: 40° C.; injection volume: 2 μL.
Electrospray ionization (ESI) ion source temperature was 550° C., the mass spectrometer voltage in the positive ion mode was 5,500 V, the mass spectrometer voltage in the negative ion mode was-4,500 V, and the curtain gas (CUR) was 35 psi. In the Q-Trap 6500+, each ion transition was scanned based on optimized declustering potential (DP) and collision energy (CE).
The quantificative analysis was accomplished using the multiple reaction monitoring mode (MRM, as shown below) of triple quadrupole mass spectrometry. […] And the non-target ion interference was eliminated, so that the quantification was more accurate and reproducible. After obtaining the mass spectrometry data of different samples, the chromatographic peaks of all target substances were integrated and quantitatively analyzed through the standard curve.

PDYKQKLRDSKAWESLETIGIPLDADVM (insect-derived short peptide) [GSS1-PI]
ABA content (24 h treatment): increased significantly | JA content (24 h treatment): increased significantly | ABA content (48 h treatment): upward trend but no significant difference | JA content (48 h treatment): downward trend | SA content (before and after treatment): no significant change
